Source: ChEMBL document CHEMBL3259793, “Novel cycloalkenepyrazoles as inhibitors of bub1 kinase” (ACS Med Chem Lett, 2014)

Target: Mitotic checkpoint serine/threonine-protein kinase BUB1 (Homo sapiens, UniProt O43683)
Experiment: Inhibition of Bub1 kinase (unknown origin) by TR-FRET kinase assay

Mitotic checkpoint serine/threonine-protein kinase BUB1, sequence (O43683 whole entry): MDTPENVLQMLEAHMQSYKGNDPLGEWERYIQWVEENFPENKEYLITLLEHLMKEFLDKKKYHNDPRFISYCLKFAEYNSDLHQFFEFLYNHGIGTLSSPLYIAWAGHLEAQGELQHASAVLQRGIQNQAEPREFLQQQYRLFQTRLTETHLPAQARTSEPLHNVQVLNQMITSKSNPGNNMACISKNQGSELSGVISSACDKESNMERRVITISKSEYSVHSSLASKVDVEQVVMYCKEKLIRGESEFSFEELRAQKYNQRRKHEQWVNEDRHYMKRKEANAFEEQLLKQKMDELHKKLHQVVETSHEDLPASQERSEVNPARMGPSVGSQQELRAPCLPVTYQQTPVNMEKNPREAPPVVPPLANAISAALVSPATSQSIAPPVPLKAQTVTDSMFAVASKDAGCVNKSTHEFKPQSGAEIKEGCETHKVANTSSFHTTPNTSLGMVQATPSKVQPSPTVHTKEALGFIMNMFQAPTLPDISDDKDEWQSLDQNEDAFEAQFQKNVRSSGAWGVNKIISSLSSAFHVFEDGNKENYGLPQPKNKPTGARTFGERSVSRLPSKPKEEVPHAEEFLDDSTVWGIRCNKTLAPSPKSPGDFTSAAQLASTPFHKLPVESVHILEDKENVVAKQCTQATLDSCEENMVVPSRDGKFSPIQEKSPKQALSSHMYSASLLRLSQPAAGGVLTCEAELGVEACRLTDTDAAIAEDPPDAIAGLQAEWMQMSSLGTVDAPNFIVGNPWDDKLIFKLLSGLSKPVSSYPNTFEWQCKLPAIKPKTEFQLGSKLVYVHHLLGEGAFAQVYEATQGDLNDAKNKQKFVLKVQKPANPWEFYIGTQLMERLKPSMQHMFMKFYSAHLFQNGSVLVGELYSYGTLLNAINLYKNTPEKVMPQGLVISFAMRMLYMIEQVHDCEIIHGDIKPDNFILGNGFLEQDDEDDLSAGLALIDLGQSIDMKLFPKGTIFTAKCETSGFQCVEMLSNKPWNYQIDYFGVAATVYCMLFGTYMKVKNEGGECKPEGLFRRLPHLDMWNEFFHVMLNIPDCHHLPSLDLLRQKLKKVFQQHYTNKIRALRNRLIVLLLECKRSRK

## CCOC(=O)c1cnccc1Nc1nc(-c2nn(Cc3ccccc3F)c3c2CCC3)ncc1Oc1ccccc1C(=O)OCC
  IC50: 0.5 µM
